PMC7150870 (Toxins, 2020)
Marks after values point to notes of the source that are not given here.

Experiments:
[1] = system: human colon adenocarcinoma HT29 cells; conditions: cited from earlier work
cells = conditions: cited from earlier work
Caco-2 cells [2] = conditions: human (Caco-2), mouse (RAW 264.7)
HEK293T = format: cell-based, human
in vitro = conditions: human (HepG2, Caco-2, HEK 293T); mouse (RAW 264.7)
P-gp = P-gp (Homo sapiens, UniProt P08183)
epithelial cell layers = conditions: after 24 h; cited from earlier work
mice = conditions: mouse, in vivo, po; cited from earlier work
[3] = system: TK6, and human hepatic HepaRG cells; conditions: 25 µM; cited from earlier work
Caco-2 cells [4] = conditions: cited from earlier work
[5] = system: human small intestinal cells; conditions: read-out: IC50 (not achieved up to); cited from earlier work
HEK293 cells = conditions: for 2 h; cited from earlier work
Caco-2 cells [6] = conditions: cited from earlier work; remark: listed apart in the source

Sequence of P-gp (P08183 whole entry, looked up): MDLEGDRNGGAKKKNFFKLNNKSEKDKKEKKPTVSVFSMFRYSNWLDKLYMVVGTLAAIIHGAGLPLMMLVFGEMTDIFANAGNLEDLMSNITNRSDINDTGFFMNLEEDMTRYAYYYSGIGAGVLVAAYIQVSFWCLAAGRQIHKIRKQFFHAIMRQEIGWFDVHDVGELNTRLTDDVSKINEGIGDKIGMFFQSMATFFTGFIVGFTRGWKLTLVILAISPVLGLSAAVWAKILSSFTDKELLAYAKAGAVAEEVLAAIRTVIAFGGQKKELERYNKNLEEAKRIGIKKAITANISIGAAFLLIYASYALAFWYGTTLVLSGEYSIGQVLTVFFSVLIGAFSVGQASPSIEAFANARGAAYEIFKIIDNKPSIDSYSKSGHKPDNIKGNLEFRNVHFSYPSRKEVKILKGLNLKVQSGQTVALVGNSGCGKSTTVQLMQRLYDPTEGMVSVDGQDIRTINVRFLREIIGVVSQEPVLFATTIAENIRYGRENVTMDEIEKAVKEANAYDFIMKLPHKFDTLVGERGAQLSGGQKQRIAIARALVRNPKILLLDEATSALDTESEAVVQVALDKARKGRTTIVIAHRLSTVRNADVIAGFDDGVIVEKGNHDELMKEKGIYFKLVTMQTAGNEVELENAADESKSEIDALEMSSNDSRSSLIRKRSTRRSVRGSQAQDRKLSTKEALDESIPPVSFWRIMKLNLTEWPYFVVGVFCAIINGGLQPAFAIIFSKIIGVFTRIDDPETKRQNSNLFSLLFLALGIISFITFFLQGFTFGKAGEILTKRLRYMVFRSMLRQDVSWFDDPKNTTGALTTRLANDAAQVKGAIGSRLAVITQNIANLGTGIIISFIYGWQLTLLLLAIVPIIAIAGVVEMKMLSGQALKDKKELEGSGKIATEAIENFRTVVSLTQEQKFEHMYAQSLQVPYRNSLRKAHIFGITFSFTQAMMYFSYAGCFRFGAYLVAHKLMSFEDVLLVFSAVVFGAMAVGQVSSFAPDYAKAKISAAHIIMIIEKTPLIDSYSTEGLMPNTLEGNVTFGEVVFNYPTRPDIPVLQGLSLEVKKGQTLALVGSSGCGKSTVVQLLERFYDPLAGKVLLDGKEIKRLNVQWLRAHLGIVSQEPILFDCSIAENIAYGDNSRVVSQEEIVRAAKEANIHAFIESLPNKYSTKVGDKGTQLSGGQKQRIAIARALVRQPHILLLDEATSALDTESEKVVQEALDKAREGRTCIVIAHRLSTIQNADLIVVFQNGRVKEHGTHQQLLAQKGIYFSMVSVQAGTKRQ

Row | SMILES | percentage of DNA in comet tail with respect to the negative control (HEK 293T cells) | concentration with statistically significant decrease in viability of cells (cells) [µM] | transepithelial transport, Apical Medium (Caco-2 cells [2]) | transepithelial transport, Basolateral Medium (Caco-2 cells [2]) | transepithelial transport, Caco-2 Cells (Caco-2 cells [2]) | transepithelial transport, Raw 264.7 Cells (Caco-2 cells [2]) | transepithelial transport, Total (Caco-2 cells [2]) | combination index, mixture of DAS (6.58 nM) (HEK293T) | combination index, mixture of HT-2 (21.22 nM) (HEK293T) | combination index, mixture of T-2 (3.87 nM) (HEK293T) | type of interaction, mixture of DAS (6.58 nM) (HEK293T) | type of interaction, mixture of HT-2 (21.22 nM) (HEK293T) | type of interaction, mixture of T-2 (3.87 nM) (HEK293T) | IC50 (in vitro) [nM] | P-gp activation (ATP consumption) (P-gp) | further results
1 | Cc1cc(O)cc2oc(=O)c3c(O)cc(O)cc3c12 [AOH, alternariol] | significantly increased | 50 | 39.00 ± 22.02^cd % | 59.97 ± 2.86^h % | 0.04 ± 0.02^a % | 0.07 ± 0.02^h % | 99.08 ± 24.47^e % | 0.91 ± 0.07 Add | 0.92 ± 0.02 Add | 1.00 ± 0.09 Add | 0.91 ± 0.07 Add (key: Syn: Combination index (CI) < 0.9; Add: 0.9 ≤ CI ≤ 1; Ant: CI > 1) | 0.92 ± 0.02 Add (key: Syn: Combination index (CI) < 0.9; Add: 0.9 ≤ CI ≤ 1; Ant: CI > 1) | 1.00 ± 0.09 Add (key: Syn: Combination index (CI) < 0.9; Add: 0.9 ≤ CI ≤ 1; Ant: CI > 1) | > 50 | activated P-gp in dose-dependent manner | concentrations significantly increasing the rate of DNA breaks [1]: ≥ 1000 nM; comet tails (percentage of DNA) (HEK 293T cells; 25 µM, 24 h): about 55%; metabolites found by non-target U-HPLC-MS analysis (Caco-2 cells [2]): 3-O-glucuronide and 9-O-glucuronide
2 | CC1=C[C@H]2O[C@@H]3[C@H](O)C[C@](C)([C@@]2(CO)[C@H](O)C1=O)[C@]31CO1 [DON, deoxynivalenol] | significantly increased | 1 | 73.33 ± 2.90^f % | 21.48 ± 0.91^cde % | 0.00 ± 0.00^a % | 0.01 ± 0.00^a % | 94.83 ± 2.14^e % | 0.88 ± 0.17 Syn | 0.87 ± 0.04 Syn | 1.29 ± 0.13 Ant | 0.88 ± 0.17 Syn (key: Syn: Combination index (CI) < 0.9; Add: 0.9 ≤ CI ≤ 1; Ant: CI > 1) | 0.87 ± 0.04 Syn (key: Syn: Combination index (CI) < 0.9; Add: 0.9 ≤ CI ≤ 1; Ant: CI > 1) | 1.29 ± 0.13 Ant (key: Syn: Combination index (CI) < 0.9; Add: 0.9 ≤ CI ≤ 1; Ant: CI > 1) |  | activated P-gp in dose-dependent manner | transport through the epithelial cell layers (epithelial cell layers): up to 38%; LD50 for mice (mice): 46 to 78 mg/kg; genotoxicity [3]: failed to induce genotoxicity
3 | CC[C@H](C)[C@H]1C(=O)O[C@H](C(C)C)C(=O)N(C)[C@@H](C(C)C)C(=O)O[C@H](C(C)C)C(=O)N(C)[C@@H](C(C)C)C(=O)O[C@H](C(C)C)C(=O)N1C [ENN-B1, enniatin B1] |  | 2 | 10.46 ± 2.43^a % | 28.16 ± 3.37^e % | 0.51 ± 0.03^ab % | 0.60 ± 0.10^c % | 39.72 ± 4.74^ab % | 0.82 ± 0.06 Syn | 0.90 ± 0.05 Add | 0.88 ± 0.07 Syn | 0.82 ± 0.06 Syn (key: Syn: Combination index (CI) < 0.9; Add: 0.9 ≤ CI ≤ 1; Ant: CI > 1) | 0.90 ± 0.05 Add (key: Syn: Combination index (CI) < 0.9; Add: 0.9 ≤ CI ≤ 1; Ant: CI > 1) | 0.88 ± 0.07 Syn (key: Syn: Combination index (CI) < 0.9; Add: 0.9 ≤ CI ≤ 1; Ant: CI > 1) | > 50 |  | concentration with significant DNA damage (Caco-2 cells [4]): 3000 nM
4 | CC(C)[C@H]1C(=O)O[C@H](C(C)C)C(=O)N(C)[C@@H](C(C)C)C(=O)O[C@H](C(C)C)C(=O)N(C)[C@@H](C(C)C)C(=O)O[C@H](C(C)C)C(=O)N1C [ENN-B, enniatin B] |  | 2 | 24.08 ± 3.20^abc % | 25.49 ± 4.31^e % | 1.15 ± 0.25^b % | 0.31 ± 0.03^b % | 51.02 ± 7.70^bc % | 0.79 ± 0.08 Syn | 0.87 ± 0.05 Syn | 1.11 ± 0.10 Ant | 0.79 ± 0.08 Syn (key: Syn: Combination index (CI) < 0.9; Add: 0.9 ≤ CI ≤ 1; Ant: CI > 1) | 0.87 ± 0.05 Syn (key: Syn: Combination index (CI) < 0.9; Add: 0.9 ≤ CI ≤ 1; Ant: CI > 1) | 1.11 ± 0.10 Ant (key: Syn: Combination index (CI) < 0.9; Add: 0.9 ≤ CI ≤ 1; Ant: CI > 1) | > 50 |  | genotoxic effect (Caco-2 cells [4]; 3 µM): did not show genotoxic effect; metabolites found by non-target U-HPLC-MS analysis (Caco-2 cells [2]): metabolite M6
5 | COc1c(C)c2c(c(O)c1C/C=C(\C)CCC(=O)O)C(=O)OC2 [MPA, mycophenolic acid, reference compound] | no significant DNA damage |  | 57.27 ± 0.79^ef % | 39.77 ± 0.52^f % | 0.00 ± 0.00^a % | 0.02 ± 0.00^a % | 97.07 ± 0.27^e % | 0.83 ± 0.07 Syn | 0.90 ± 0.04 Add | 0.85 ± 0.05 Syn | 0.83 ± 0.07 Syn (key: Syn: Combination index (CI) < 0.9; Add: 0.9 ≤ CI ≤ 1; Ant: CI > 1) | 0.90 ± 0.04 Add (key: Syn: Combination index (CI) < 0.9; Add: 0.9 ≤ CI ≤ 1; Ant: CI > 1) | 0.85 ± 0.05 Syn (key: Syn: Combination index (CI) < 0.9; Add: 0.9 ≤ CI ≤ 1; Ant: CI > 1) | > 50 |  | IC50 [5]: > 156 nM
6 | C[C@H]1CCCC(=O)CCC/C=C/c2cc(O)cc(O)c2C(=O)O1 [ZEA, zearalenone] | no significant DNA damage | 25 | 32.23 ± 1.71^bc % | 54.24 ± 2.38^gh % | 0.19 ± 0.01^ab % | 0.05 ± 0.01^a % | 86.70 ± 0.67^de % | 0.85 ± 0.07 Syn | 0.83 ± 0.03 Syn | 0.92 ± 0.01 Add | 0.85 ± 0.07 Syn (key: Syn: Combination index (CI) < 0.9; Add: 0.9 ≤ CI ≤ 1; Ant: CI > 1) | 0.83 ± 0.03 Syn (key: Syn: Combination index (CI) < 0.9; Add: 0.9 ≤ CI ≤ 1; Ant: CI > 1) | 0.92 ± 0.01 Add (key: Syn: Combination index (CI) < 0.9; Add: 0.9 ≤ CI ≤ 1; Ant: CI > 1) | > 50 | activated P-gp in dose-dependent manner | concentration range damaging DNA in a concentration-dependent manner (HEK293 cells): 2500 to 20000 nM
7 | C[C@H]1CCC[C@H](O)CCC/C=C/c2cc(O)cc(O)c2C(=O)O1 [α-ZEA] |  |  |  |  |  |  |  |  |  |  |  |  |  |  |  | share of total metabolites produced by Caco-2 cells (Caco-2 cells [6]): 41%
8 | C[C@H]1CCC[C@@H](O)CCC/C=C/c2cc(O)cc(O)c2C(=O)O1 [β-ZEA] |  |  |  |  |  |  |  |  |  |  |  |  |  |  |  | share of total metabolites produced by Caco-2 cells (Caco-2 cells [6]): 32%
